Where two headings read alike, the source gives them in different places.
Legend:
[1] = tested on: bladder detrusor smooth muscle; test: first in vitro test: relaxation of guinea pig bladder detrusor strips contracted with 15 mM KCl; type: cell-based, Male albino Hartley guinea pigs; conditions: for IC50: Cavia porcellus; for relaxation and reduction of the myogenic activity of guinea pig detrusor strips: first test, calcium channel blockers
Experimental: Male albino Hartley guinea pigs (450-500 g) are sacrificed by carbon dioxide induced asphyxiation and quickly exsanguinated. The lower abdominal cavity is opened and the urinary bladder isolated. […] The solution is warmed to 37° C. and gassed with 95% O2 and 5% CO2. With vigorous bubbling, the solution should have a pH value close to 7.4.
The dome of the washed bladder is cut off and discarded; the remaining bladder is placed on a gauze in a Petri dish containing the buffer solution. A mid-ventral longitudinal cut is made with scissors to open the bladder. The strips cut from the dome and the base edge are discarded. The remaining detrusor mid-section is cut into two horizontal strips with an approximate width of 2.0 mm. These two strips are further bisected at the mid-dorsal section, creating four strip of similar dimensions. Each strip thus contains both dorsal and ventral portions of the bladder.
The two ends of each individual strip are tied to a glass support rod and a force-displacement transducer (Grass model FR03), respectively, with 4-0 black braided silk suture.
The transducers are connected to a polygraph (Grass model 7E), which is calibrated at 5 mV/cm and the calibration checked for linearity with weights of 5 and 0.5 grams. The analog electrical output signals from the polygraph are digitized by a Modular Instrument Micro 5000 signal processing system using Biowindow Data Acquisition Software, which is run under the Microsoft OS/2 operating system with an IBM-compatible PC.
The detrusor strips on the glass rod are secured in 20 ml tissue baths and allowed to equilibrate under a preload tension of 2 grams. During the following 45 to 60 min equilibration period, the tissue is washed with fresh buffer solution at 15 min interval, with the tension adjusted, if necessary, to 2 grams prior to washing. After the equilibration period, a priming dose of 15 mM KCl (total concentration in the bath) is applied. The tissue is washed after 10 min and washed twice more at 15 min intervals with tension adjusted to 2 grams before each washing.
When the tissue relaxes to a steady state after the final washing, 15 mM KCl is again applied. Once the myogenic activity of the tissue reaches a steady state, the baseline data are acquired through the Biowindows Data Acquisition System by averaging 5 min of the myogenic data sampled at 32 Hz. Once the baseline is acquired, the experimental compounds are dosed in a cumulative manner in half log unit increments. The contact time for each dose is 10 min with the final 5 min being the period of time that the dose reponse data are required. […] The effect of the compound at each dose is expressed as % of the maximum inhibitory response, which is further normalized with respect to the corresponding effect of the compound vehicle control. The normalized response is then used to derive the IC50 of the relaxant activity of the compound through the application of Marquardt' s nonlinear iterative curve fitting technique to a standard dose-response function.

detrusor smooth muscle = test: second in vitro test: relaxation of guinea pig detrusor strips contracted with 80 mM KCl; type: cell-based; conditions: for potency in the second test relative to the first test: 80 mM KCl vs 15 mM KCl; for relaxation and reduction of the myogenic activity of guinea pig detrusor strips: second test, calcium channel blockers
Experimental: This second in vitro test is similar to the one described above with regard to tissue preparation and data acquisition. However, the following exceptions are noted. In this second test, the contraction of the detrusor strips during priming and after the equilibration period is achieved with 80 mM instead of 15 mM KCl (total concentration in the bath).

[2] = ability to relax bladder smooth muscle, comparison with non-fluorinated analogs, read-out: IC50

| SMILES | IC50 [1, 2] | relaxation and reduction of the myogenic activity of guinea pig detrusor strips (detrusor smooth muscle; 80 mM KCl) | other results |
| --- | --- | --- | --- |
| CC1(C)CN(c2cccc[n+]2[O-])c2cc(S(=O)(=O)c3ccccc3)ccc2O1 [*] | 4100 nM |  |  |
| CC1(C)CN(c2cccc[n+]2[O-])c2cc([N+](=O)[O-])ccc2O1 [@] | 74 nM |  |  |
| CC1(C(F)(F)F)CN(c2cccc[n+]2[O-])c2cc(S(=O)(=O)c3ccccc3)ccc2O1 (stereo not drawn) [Example 1, 2-(2-Methyl-2-trifluoromethyl-6-phenylsulfonyl-3,4-dihydro-2H-1,4-benzoxazin-4-yl)pyridine-N-oxide] | 540 nM |  | IC50 ([1]; guinea pig detrusor strips, read-out: IC50 (50% decrease in the in vitro contraction of the bladder tissue)): 540 nM |
| O=[N+]([O-])c1ccc2c(c1)N(c1cccc[n+]1[O-])CC(CF)(CF)O2 [Example 4, 2-(2,2-(bis)Fluoromethyl-6-nitro-3,4-dihydro-2-H-1,4-benzoxazine-4-yl)pyridine-N-oxide] | 25 nM |  |  |
| O=S(=O)(c1ccccc1)c1ccc2c(c1)N(c1cccc[n+]1[O-])CC(CF)(CF)O2 [Example 5, 2-(2,2-(bis)Fluoromethyl-6-phenylsulfonyl-3,4-dihydro-2H-1,4-benzoxazine-4-yl)pyridine-N-oxide] | 2250 nM |  |  |
| O=S(=O)(c1ccccc1)c1ccc2c(c1)N(c1cccc[n+]1[O-])CC(C(F)F)(C(F)F)O2 [Example 6, 2-(2,2-bis(Difluoromethyl)-6-phenylsulfonyl-3,4-dihydro-2H-1,4-benzoxazine-4-yl)pyridine-N-oxide] | 360 nM |  |  |
| O=[N+]([O-])c1ccc2c(c1)N(c1cccc[n+]1[O-])CC(C(F)F)(C(F)F)O2 [Example 8, 2-(2,2-bis(Difluoromethyl)-6-nitro-3,4-dihydro-2H-1,4-benzoxazine-4-yl)pyridine-N-oxide] | 7 nM |  |  |
| CC1(C)Oc2ccc(C#N)cc2C(N2CCCC2=O)C1O (stereo not drawn) [cromakalim] |  |  | relaxant activity in the second test (detrusor smooth muscle; 80 mM KCl, at concentrations as high as 30 μM): insignificant relaxant activity; IC50 ([1]; putative potassium channel opener, read-out: relaxant activity IC50 in the first test): 600 to 900 nM |
| COC(=O)C1=C(C)NC(C)=C(C(=O)OC(C)C)C1c1cccc2nonc12 (stereo not drawn) [isradipine] |  | able to relax and reduce the myogenic activity | potency in the second test relative to the first test (detrusor smooth muscle): more potent in the second test; relaxation and reduction of the myogenic activity of guinea pig detrusor strips [1]: able to relax and reduce the myogenic activity |
| COC(=O)C1=C(C)NC(C)=C(C(=O)OC)C1c1ccccc1[N+](=O)[O-] [nifedipine] |  | able to relax and reduce the myogenic activity |  |
| COCCOC(=O)C1=C(C)NC(C)=C(C(=O)OC(C)C)C1c1cccc([N+](=O)[O-])c1 (stereo not drawn) [nimodipine] |  | able to relax and reduce the myogenic activity | potency in the second test relative to the first test (detrusor smooth muscle): more potent in the second test; relaxation and reduction of the myogenic activity of guinea pig detrusor strips [1]: able to relax and reduce the myogenic activity |
| COc1ccc(Cc2nccc3cc(OC)c(OC)cc23)cc1OC [papaverine] |  |  | abolition of the KCl-induced tension (detrusor smooth muscle; 80 mM KCl, 300 μM, maximum response): totally abolished |
| COc1ccc(CCN(C)CCCC(C#N)(c2ccc(OC)c(OC)c2)C(C)C)cc1OC (stereo not drawn) [verapamil] |  | able to relax and reduce the myogenic activity | potency in the second test relative to the first test (detrusor smooth muscle): more potent in the second test; relaxation and reduction of the myogenic activity of guinea pig detrusor strips [1]: able to relax and reduce the myogenic activity |
